{"source": "paper PMC6423783", "about": "“Flavokawain B targets protein neddylation for enhancing the anti-prostate cancer effect of Bortezomib via Skp2 degradation” (Cell Communication and Signaling : CCS, 2019)", "biological_target": "T1, NAE1 regulatory subunit APP-BP1 (NEDD8 activating enzyme, NAE) (Homo sapiens, UniProt Q13564)", "T1 construct": "APP-BP1/UBA3 (NEDD8 ligase E1); with UBA3", "T1 sequence (Q13564 2-534)": "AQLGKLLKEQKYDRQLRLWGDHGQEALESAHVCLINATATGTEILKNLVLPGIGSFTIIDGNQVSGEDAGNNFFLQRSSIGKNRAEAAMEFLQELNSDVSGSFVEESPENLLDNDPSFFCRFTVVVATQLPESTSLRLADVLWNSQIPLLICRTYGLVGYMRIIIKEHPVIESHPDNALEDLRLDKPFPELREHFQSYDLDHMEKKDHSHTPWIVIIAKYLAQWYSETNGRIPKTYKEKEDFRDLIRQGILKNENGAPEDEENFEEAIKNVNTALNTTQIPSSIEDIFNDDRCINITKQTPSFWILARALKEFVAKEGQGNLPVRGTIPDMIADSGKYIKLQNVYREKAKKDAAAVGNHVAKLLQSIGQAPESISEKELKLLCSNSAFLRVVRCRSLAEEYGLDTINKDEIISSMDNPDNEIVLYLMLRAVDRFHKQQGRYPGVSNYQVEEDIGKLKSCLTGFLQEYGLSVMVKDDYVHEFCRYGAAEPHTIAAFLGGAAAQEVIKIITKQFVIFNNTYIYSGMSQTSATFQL", "T1 sequence (Q8TBC4 2-463 partner)": "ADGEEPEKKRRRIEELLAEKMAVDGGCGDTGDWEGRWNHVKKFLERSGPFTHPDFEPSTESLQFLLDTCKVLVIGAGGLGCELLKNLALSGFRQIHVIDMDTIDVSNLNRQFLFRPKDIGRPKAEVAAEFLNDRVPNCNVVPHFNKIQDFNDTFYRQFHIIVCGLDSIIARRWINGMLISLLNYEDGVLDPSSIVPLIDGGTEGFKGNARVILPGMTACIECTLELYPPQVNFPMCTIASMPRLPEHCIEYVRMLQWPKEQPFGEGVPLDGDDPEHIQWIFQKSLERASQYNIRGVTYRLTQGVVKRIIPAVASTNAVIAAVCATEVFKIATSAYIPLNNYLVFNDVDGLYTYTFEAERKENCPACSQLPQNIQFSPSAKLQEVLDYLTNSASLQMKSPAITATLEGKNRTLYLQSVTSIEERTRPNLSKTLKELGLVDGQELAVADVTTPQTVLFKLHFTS", "assay": "in vitro NEDD8 initiation conjugation assay (APP-BP1/UBA3, UbcH12, NEDD8; Western readout), supported by CETSA of APP-BP1 in PC3 cells", "type": "biochemical", "protocol": "in vitro NEDD8 initiation conjugation assay (APP-BP1/UBA3, UbcH12, NEDD8; Western readout), supported by CETSA of APP-BP1 in PC3 cells on NAE1 regulatory subunit APP-BP1 (NEDD8 activating enzyme, NAE) | The relative density of NEDD8-Ubc12 to the control was analyzed to have an estimated IC50 of approximately11μM", "data": [{"smiles": "COc1cc(O)c(C(=O)/C=C/c2ccccc2)c(OC)c1", "note": "[FKB, Flavokawain B]", "values": [{"measurement": "IC50", "value": "~11", "unit": "µM"}]}]}
